In patent US20230416675A1, “EFFICIENT AND RAPID SPECIFICATION OF SPINAL NEURONAL SUBTYPES FROM HUMAN PLURIPOTENT STEM CELLS” (INSERM (INSTITUT NATIONAL DE LA SANTE ET DE LA RECHERCHE …, priority 2020, published 2023):
Entries after “also recorded” stand apart in the source; their conditions may differ. Values belong to the molecule of their own block, whether it stands above or below them.

Experiments:
Format in all cases: cell-based, human
induced PSC (iPSC) line = assay: Induction of CDX2-expressing axial progenitors in an induced PSC line; settings: CHIR increased from 3 to 4 μM
Description: Human PSC embryoid body-based differentiation was performed as previously described (Maury et al., 2015). hPSC were dissociated with cold Accutase (Life Technologies) for 3 to 5 min at 37° C. and resuspended in differentiation medium N2B27 (Advanced DMEM F12, Neurobasal vol:vol (Life Technologies)), supplemented with N2 (Life Technologies), B27 without Vitamin A (Life technologies), penicillin/streptomycin 1%, β-Mercaptoéthanol 0.1% (Life Technologies), with Y-27632 (10 μM, Stemgent or Stem Cell Technologies), CHIR-99021 (3 μM or 4 μM Selleckchem) SB431542 (20 μM, Selleckchem) and LDN 193189 (0.1 μM, Selleckchem). 2×10^5 cells ml^-1 were seeded in ultra-low attachment 6 well plates (Corning) to form embryoid bodies (EBs). All conditions of differentiation received the same medium at day 2 and at day 3 but SB431542 was removed at day 3. Then, the differentiation proceeded according to the […] presented above the figures. SAG (Smoothened Agonist, Merck millipore), FGF2 (Recombinant Human FGF basic, Peprotech), RA (Sigma-Aldrich), GDF11 (Recombinant Human/Murine/Rat GDF11, Peprotech), PD0325901 (Selleckchem), PD173074, SCH772984 (Selleckchem), DAPT (Stemgent) were added at indicated time points. For concentrations see Table S2. Media were changed every other day unless specified. […]

[1] = test system: HOX genes in hPSC-derived axial progenitors; assay: Real time PCR analysis of HOX mRNAs in progenitors; settings: for temporal increase of HOXC6, C8 and C9 mRNAs in progenitors: inhibitor at D3, progenitors at D4 and D5
Description: (§1) Human PSC embryoid body-based differentiation was performed as previously described (Maury et al., 2015). hPSC were dissociated with cold Accutase (Life Technologies) for 3 to 5 min at 37° C. and resuspended in differentiation medium N2B27 (Advanced DMEM F12, Neurobasal vol:vol (Life Technologies)), supplemented with N2 (Life Technologies), B27 without Vitamin A (Life technologies), penicillin/streptomycin 1%, β-Mercaptoéthanol 0.1% (Life Technologies), with Y-27632 (10 μM, Stemgent or Stem Cell Technologies), CHIR-99021 (3 μM or 4 μM Selleckchem) SB431542 (20 μM, Selleckchem) and LDN 193189 (0.1 μM, Selleckchem). 2×10^5 cells ml^−1 were seeded in ultra-low attachment 6 well plates (Corning) to form embryoid bodies (EBs). All conditions of differentiation received the same medium at day 2 and at day 3 but SB431542 was removed at day 3. Then, the differentiation proceeded according to the schemas presented above the figures. SAG (Smoothened Agonist, Merck millipore), FGF2 (Recombinant Human FGF basic, Peprotech), RA (Sigma-Aldrich), GDF11 (Recombinant Human/Murine/Rat GDF11, Peprotech), PD0325901 (Selleckchem), PD173074, SCH772984 (Selleckchem), DAPT (Stemgent) were added at indicated time points. For concentrations see Table S2. Media were changed every other day unless specified.
Total RNA were extracted (RNAeasy Plus Mini Kit, Qiagen) and cDNA synthesized using SuperScript III (Invitrogen). Quantitative real-time PCR was performed using a 7900HT fast real time PCR system (Applied Biosystems) with Sybr Green PCR Master Mix (Applied Biosystems). Alternatively performed using QuantStudio 5 Real-Time PCR System (Thermofisher Scientific) and a mix with qPCR Brilliant II SYBR MM with low ROX (Agilent). Primers are listed in Supplementary Table 3. All expression data were normalized to Cyclophilin A mRNA. All analyses were performed with three technical replicates per plate. Relative expression levels were determined by calculating 2-ΔΔCt.

[2] = test system: hPSC-derived axial progenitors; assay: Motor neuron (MN) subtype specification: immunostaining of embryoid bodies on day 14 of differentiation, proportion of MNs (ISL1+ cells) expressing HOX/FOXP1/SCIP markers; settings: for MN identities induced: extrinsic cue added on D3 with RA/SAG, all concentrations and durations; for rostro-caudal identity of MNs generated: inhibitor added at D3 up to D7, RA/SAG at D7; for efficiency of MN generation: inhibitor from D3 to D7, RA/SAG at D7
Description: as §1
EBs were collected, rinsed with PBS then fixed with 4% PFA for 5 min at 4° C. and rinsed with PBS 3 times for 5 min. EBs were cryoprotected with 30% sucrose and embedded in OCT (Leica) prior sectioning with a cryostat. Alternatively, day 2, 3 and 4 progenitors were plated on Matrigel (Corning, diluted according to manufacturer recommendation) coated coverslips and let to adhere between for 30 min prior fixation with 4% PFA for 5 min at 4° C.
All immunostainings were performed as follow: cells or sections were incubated with a saturation solution (PBS/FBS 10%/0.2% Triton) for 10 minutes. Primary antibodies (Table S3) were diluted in staining solution (PBS/2% FBS/0.2% Triton) and incubated overnight at 4° C. in a humidified chamber. Following 4 PBS washes (10 min each), secondary antibodies (Alexa488, Alexa568 and Alexa647, Life Technologies, 1:1,000) were added for 1 h at RT. After 3 PBS washes, DAPI was added on the cells (Invitrogen, 1:3,000) for 5 min. Cells or slices were then mounted in Fluoromount (Sigma Aldrich or Cliniscience).
Samples were visualized and imaged using either a ZEISS LSM 880 Confocal Laser Scanning Microscope (Carl Zeiss Microscopy) controlled by Zen black software (Zeiss), a confocal microscope TCS SP5 II (Leica) or a DM6000 microscope (Leica) equipped with CoolSNAP EZ CDD camera, controlled by MetaMorph software (MetaMorph Inc). Alternatively, images were acquired using the automated microscope Cell Discoverer 7 (Zeiss), equipped with an Axiocam 506 m camera, with Zen black software (Zeiss).
All statistics were computed using Graphpad Prism software. One-way analysis of variance (ANOVA) with a Kruskall-Wallis post hoc analysis were performed following normality tests provided by Prism. In all figures, n are independent differentiations started from independent newly thawed hPSCs vials. For each condition at least 4 independent EBs were imaged in which all the cells were quantified by automated image analysis. The images were exported and saved as TIFF with Fiji if needed (Schindelin et al., 2012). Quantitative analyses on images were performed using the CellProfiler software (Carpenter et al., 2006) (Broad Institute open source at www.cellprofiler.org). DAPI stained nucleus were segmented into primary objects using CellProfiler segmentation pipeline and the nuclear mask was used to define objects on the target channels. The threshold to define positive nuclei for a given target was obtained using EBs' section negative for the target of interest. All images across conditions were then automatically analyzed in batch ensuring unbiased analysis. […]

[3] = FGF2 15 ng/ml D3 to D9 together with RA/SAG
[4] = FGF2 60 ng/ml D3 to D9 together with RA/SAG
[5] = FGF2 120 ng/ml for 24 h from D3, with RA/SAG
[6] = FGF2 120 ng/ml for 48 h from D3, with RA/SAG
[7] = GDF11 25 ng/ml for 24 h with RA on D3 progenitors

Molecule: Cc1cnc(-c2cnc(NCCNc3ccc(C#N)cn3)nc2-c2ccc(Cl)cc2Cl)[nH]1 [CHIR, 6-[[2-[[4-(2,4-dichlorophenyl)-5-(5-methyl-1H-imidazol-2-yl)-2 pyrimidinyl]amino]ethyl]amino]-3-pyridinecarbonitrile]
homogenous population of progenitors expressing CDX2 on D3 (induced PSC (iPSC) line): necessary to generate a homogenous population of progenitors expressing CDX2 on D3

Molecule: FGF2: Recombinant Human FGF basic, Peprotech, accession P09038; FGFR agonist
HOX gene expression compared to RA/SAG controls ([1]; 24 h and 48 h post FGF2 treatment): precocious increase in HOXC8, HOXC9, HOXD9 and HOXC10 expression
Caudal brachial HOXC8 MNs [2, 3]: 68.2%
HOXC8 MNs, fold increase [2, 3]: 8.6 fold
HOXC9+/HOXC6- thoracic MNs [2, 4]: 58.9%
HOXC9+/HOXC6- thoracic MNs, fold increase [2, 4]: 82.5 fold
HOXC6 MNs ([2]; FGF2 120 ng/ml D3 to D9 together with RA/SAG): reduced slightly more HOXC6 MNs
FOXP1^high/SCIP MNs [2, 5]: 47.9%
HOXC6 MNs [2, 5]: 49.7%
HOXC8 MNs [2, 5]: 79.4%
HOXC9 MNs [2, 5]: 14.7%
FOXP1^high/SCIP MNs [2, 6]: 13.2%
HOXC6 MNs [2, 6]: 7.5%
HOXC9 MNs [2, 6]: 76.4%
MN identities induced [2]: induce more caudal MN subtypes; also recorded: more caudal MN identities were induced without the need of delaying RA addition

Molecule: O=C(NOC[C@H](O)CO)c1ccc(F)c(F)c1Nc1ccc(I)cc1F [PD0325901, reference compound]
temporal increase of HOXC6, C8 and C9 mRNAs in progenitors [1]: blocked this increase at D4 or D5
temporal increase of HOXC6, C8 and C9 mRNAs in progenitors ([1]; listed as PD032590): prevent the temporal increase in caudal HOX expression
rostro-caudal identity of MNs generated [2]: anterior brachial identity (HOXC6)
rostro-caudal identity of MNs generated ([2]; listed as PD032590): prevent the specification of HOXC8 and HOXC9 MNs
efficiency of MN generation [2]: not impacted

number of EBs collected ([2]; inhibitor from D3 to D7): reduced number of EBs
Molecule: CCN(CC)CCCCNc1ncc2cc(-c3cc(OC)cc(OC)c3)c(NC(=O)NC(C)(C)C)nc2n1 [PD173074, reference compound]
temporal increase of HOXC6, C8 and C9 mRNAs in progenitors [1]: prevent the temporal increase in caudal HOX expression
rostro-caudal identity of MNs generated [2]: prevent the specification of HOXC8 and HOXC9 MNs; also recorded: anterior brachial identity (HOXC6)
efficiency of MN generation [2]: not impacted

B1: GDF11: Recombinant Human/Murine/Rat GDF11, Peprotech; member of the TGFβ family (protein, UniProt O95390 299-407, looked up)
Growth/differentiation factor …: NLGLDCDEHSSESRCCRYPLTVDFEAFGWDWIIAPKRYKANYCSGQCEYMFMQKYPHTHLVQQANPRGSAGPCCTPTKMSPINMLYFNDKQQIIYGKIPGMVVDRCGCS
caudal thoracic or lumbar identities ([2]; GDF11 25 ng/ml for 24 h or 48 h with RA): none of the more caudal identities were observed
HOXC8 MNs [2, 7]: 58.7%
HOXC9 MNs [2, 7]: 41.0%
anterior thoracic MNs ([2]; GDF11 25 ng/ml for 48 h with RA on D3 progenitors): increasing after 48 h
MN identities induced [2]: induce more caudal MN subtypes
